ChEMBL document CHEMBL1201862, “PubChem BioAssay data set” (2004)
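Assay format: 96-well plates, 48-hour exposure. GI50: concentration for 50% inhibition of growth.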 Active and inactive are the calls of the source. No stated cut-off is given here; in the data, active = GI50 up to about 1.1 µM and inactive = higher.

Key:
Experiment in all cases: NCI tumour cell line growth inhibition, 48 h
RPMI-8226 = test system: RPMI-8226
A549 = test system: A549
UACC-257 = test system: UACC-257
SNB-19 = test system: SNB-19
OVCAR-4 = test system: OVCAR-4
NCI-H23 = test system: NCI-H23
786-0 = test system: 786-0
SR = test system: SR
NCI-H522 = test system: NCI-H522
LOX IMVI = test system: LOX IMVI
M14 = test system: M14
IGROV-1 = test system: IGROV-1
RXF 631 = test system: RXF 631
MOLT-4 = test system: MOLT-4
OVCAR-3 = test system: OVCAR-3
HCC 2998 = test system: HCC 2998
K562 = test system: K562
UACC-62 = test system: UACC-62
NCI-H460 = test system: NCI-H460
KM-20L2 = test system: KM-20L2
SF-539 = test system: SF-539
XF498 = test system: XF498
SN12C = test system: SN12C
SF-268 = test system: SF-268
A498 = test system: A498
TK-10 = test system: TK-10
HL-60 = test system: HL-60
ACHN = test system: ACHN
SNB-75 = test system: SNB-75
HT-29 = test system: HT-29
OVCAR-8 = test system: OVCAR-8
SK-MEL-2 = test system: SK-MEL-2
LXFL 529 = test system: LXFL 529
Malme-3M = test system: Malme-3M
SW-620 = test system: SW-620
HCT-116 = test system: HCT-116
SK-OV-3 = test system: SK-OV-3
EKVX = test system: EKVX
NCI-H226 = test system: NCI-H226
HOP-62 = test system: HOP-62
OVCAR-5 = test system: OVCAR-5
RXF 393 = test system: RXF 393
UO-31 = test system: UO-31
M19-MEL = test system: M19-MEL
HOP-92 = test system: HOP-92
SNB-78 = test system: SNB-78
COLO 205 = test system: COLO 205
DLD-1 = test system: DLD-1
CCRF-CEM = test system: CCRF-CEM
KM12 = test system: KM12
DMS-114 = test system: DMS-114
CAKI-1 = test system: CAKI-1
SF-295 = test system: SF-295
U-251 = test system: U-251
SK-MEL-28 = test system: SK-MEL-28
HOP-18 = test system: HOP-18

Measured: GI50

CC(C)C(=O)NS(=O)(=O)c1ccccc1
inactive: RPMI-8226 > 100 µM | A549 > 100 µM | UACC-257 > 100 µM | SNB-19 > 100 µM | OVCAR-4 > 100 µM | NCI-H23 > 100 µM | 786-0 > 100 µM | SR > 100 µM | NCI-H522 > 100 µM | LOX IMVI > 100 µM | M14 > 100 µM | IGROV-1 > 100 µM | RXF 631 > 100 µM | MOLT-4 > 100 µM | OVCAR-3 > 100 µM | HCC 2998 > 100 µM | K562 > 100 µM | UACC-62 > 100 µM | NCI-H460 > 100 µM | KM-20L2 > 100 µM | SF-539 > 100 µM | XF498 > 100 µM | SN12C > 100 µM | SF-268 > 100 µM | A498 > 100 µM | TK-10 > 100 µM | HL-60 > 100 µM | ACHN > 100 µM | SNB-75 > 100 µM | HT-29 > 100 µM | OVCAR-8 > 100 µM | SK-MEL-2 > 100 µM | LXFL 529 > 100 µM | Malme-3M > 100 µM | SW-620 > 100 µM | HCT-116 > 100 µM | SK-OV-3 > 100 µM | EKVX > 100 µM | NCI-H226 > 100 µM | HOP-62 > 100 µM | OVCAR-5 > 100 µM | RXF 393 > 100 µM | UO-31 > 100 µM | M19-MEL > 100 µM | HOP-92 > 100 µM | SNB-78 > 100 µM | COLO 205 > 100 µM | DLD-1 > 100 µM | CCRF-CEM > 100 µM | KM12 > 100 µM | DMS-114 > 100 µM | CAKI-1 > 100 µM | SF-295 > 100 µM | U-251 > 100 µM | SK-MEL-28 > 100 µM | HOP-18 > 100 µM
